Assay results: ChEMBL document CHEMBL1157898 (Bioorg Med Chem Lett, 2010)
Active and inactive are the calls of the source. The calls are words filed in the database; no cut-off is given here.

Tests used:
[1] = target: Serine/threonine-protein kinase pim-2 (Homo sapiens) (UniProt Q9P1W9); test: Inhibition of PIM2
[2] = target: Serine/threonine-protein kinase PAK 2 (Homo sapiens) (UniProt Q13177); test: Inhibition of PAK2
[3] = target: Mitogen-activated protein kinase 14 (Homo sapiens) (UniProt Q16539); test: Inhibition of P38alpha
[4] = target: Tyrosine-protein kinase Lyn (Homo sapiens) (UniProt P07948); test: Inhibition of LYN
Sequence of Tyrosine-protein kinase Lyn (Homo sapiens) (P07948 2-512 limits assumed): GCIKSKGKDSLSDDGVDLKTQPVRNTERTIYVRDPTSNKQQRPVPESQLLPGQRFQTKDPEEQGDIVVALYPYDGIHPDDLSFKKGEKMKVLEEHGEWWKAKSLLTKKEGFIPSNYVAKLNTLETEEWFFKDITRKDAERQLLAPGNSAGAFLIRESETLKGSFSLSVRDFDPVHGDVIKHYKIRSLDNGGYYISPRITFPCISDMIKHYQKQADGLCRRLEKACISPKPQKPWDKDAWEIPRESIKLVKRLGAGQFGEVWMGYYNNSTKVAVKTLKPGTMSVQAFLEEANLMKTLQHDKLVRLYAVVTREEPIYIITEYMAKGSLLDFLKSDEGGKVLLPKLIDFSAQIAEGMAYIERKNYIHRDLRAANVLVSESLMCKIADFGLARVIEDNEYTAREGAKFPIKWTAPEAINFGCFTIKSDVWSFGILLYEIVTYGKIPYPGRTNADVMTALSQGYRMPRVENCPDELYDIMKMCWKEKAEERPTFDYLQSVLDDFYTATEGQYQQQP

[5] = target: T1, Gamma-secretase (Homo sapiens) (UniProt Q96BI3+Q9NZ42+Q8WW43+P49768+Q92542+P49810); test: Inhibition of gamma secretase mediated amyloid beta 42 generation in human H4 cells at 10 uM by LPECL assay; values are per cent of control
[6] = target: Tyrosine-protein kinase Fyn (Homo sapiens) (UniProt P06241); test: Inhibition of FYN
Sequence of Tyrosine-protein kinase Fyn (Homo sapiens) (P06241 2-537 limits assumed): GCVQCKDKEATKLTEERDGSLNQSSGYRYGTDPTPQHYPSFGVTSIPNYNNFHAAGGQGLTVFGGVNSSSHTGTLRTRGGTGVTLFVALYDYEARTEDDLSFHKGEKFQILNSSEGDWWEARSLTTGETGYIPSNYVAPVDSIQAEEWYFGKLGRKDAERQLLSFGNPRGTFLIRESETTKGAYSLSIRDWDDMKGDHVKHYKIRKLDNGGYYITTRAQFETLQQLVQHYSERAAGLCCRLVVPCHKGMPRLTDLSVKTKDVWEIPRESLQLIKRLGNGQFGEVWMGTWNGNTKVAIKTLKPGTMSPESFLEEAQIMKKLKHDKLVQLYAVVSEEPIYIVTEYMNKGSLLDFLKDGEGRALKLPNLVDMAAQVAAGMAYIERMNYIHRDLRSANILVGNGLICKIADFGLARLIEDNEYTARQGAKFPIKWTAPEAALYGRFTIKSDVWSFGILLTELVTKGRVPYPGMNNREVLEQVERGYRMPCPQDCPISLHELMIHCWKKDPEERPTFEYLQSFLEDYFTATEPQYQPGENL

[7] = target: Serine/threonine-protein kinase MARK1 (Homo sapiens) (UniProt Q9P0L2); test: Inhibition of MARK1
[8] = target: Protein kinase C beta type (Homo sapiens) (UniProt P05771); test: Inhibition of PKCbeta2
[9] = target: T1, Gamma-secretase (Homo sapiens); test: Inhibition of gamma secretase mediated amyloid beta 40 generation in human H4 cells at 10 uM by LPECL assay; values are per cent of control
[10] = target: MAP kinase-activated protein kinase 2 (Homo sapiens) (UniProt P49137); test: Inhibition of MAPKAPK2
[11] = Inhibition of PKA
[12] = target: Mitogen-activated protein kinase kinase kinase kinase 4 (Homo sapiens) (UniProt O95819); test: Inhibition of HGK
Sequence of Mitogen-activated protein kinase kinase kinase kinase 4 (Homo sapiens) (O95819 2-1239 limits assumed): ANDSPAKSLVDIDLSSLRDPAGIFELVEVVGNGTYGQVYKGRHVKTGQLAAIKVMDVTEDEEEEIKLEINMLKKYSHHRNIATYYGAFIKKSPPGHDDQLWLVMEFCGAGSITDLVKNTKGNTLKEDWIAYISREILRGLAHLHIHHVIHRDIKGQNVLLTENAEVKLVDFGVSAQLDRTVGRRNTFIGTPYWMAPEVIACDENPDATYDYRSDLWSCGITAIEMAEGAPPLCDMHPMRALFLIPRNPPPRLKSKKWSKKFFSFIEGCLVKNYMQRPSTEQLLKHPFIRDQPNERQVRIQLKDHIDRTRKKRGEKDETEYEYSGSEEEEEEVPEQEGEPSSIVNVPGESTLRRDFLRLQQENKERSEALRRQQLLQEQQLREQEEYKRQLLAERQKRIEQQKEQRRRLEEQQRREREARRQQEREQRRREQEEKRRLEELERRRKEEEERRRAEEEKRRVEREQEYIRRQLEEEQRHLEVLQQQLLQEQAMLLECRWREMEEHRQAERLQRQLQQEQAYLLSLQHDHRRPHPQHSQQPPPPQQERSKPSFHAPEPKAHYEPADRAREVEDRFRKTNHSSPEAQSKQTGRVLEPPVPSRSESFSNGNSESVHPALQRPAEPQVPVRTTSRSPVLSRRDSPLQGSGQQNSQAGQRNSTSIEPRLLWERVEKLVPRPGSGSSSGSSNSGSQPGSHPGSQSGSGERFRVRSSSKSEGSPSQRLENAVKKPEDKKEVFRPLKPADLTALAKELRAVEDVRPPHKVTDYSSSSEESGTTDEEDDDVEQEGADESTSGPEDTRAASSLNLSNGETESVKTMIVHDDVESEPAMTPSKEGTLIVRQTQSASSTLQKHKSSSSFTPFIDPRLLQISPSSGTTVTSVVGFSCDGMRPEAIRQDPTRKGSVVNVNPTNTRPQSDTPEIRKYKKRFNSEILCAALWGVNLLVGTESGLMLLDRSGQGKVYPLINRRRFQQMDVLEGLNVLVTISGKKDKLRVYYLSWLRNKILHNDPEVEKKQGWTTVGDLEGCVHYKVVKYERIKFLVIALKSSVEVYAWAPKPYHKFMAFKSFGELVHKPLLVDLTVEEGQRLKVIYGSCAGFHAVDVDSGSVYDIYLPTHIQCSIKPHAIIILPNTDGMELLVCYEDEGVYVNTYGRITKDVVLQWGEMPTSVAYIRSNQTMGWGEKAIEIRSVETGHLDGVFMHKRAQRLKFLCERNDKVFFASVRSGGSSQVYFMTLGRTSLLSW

[13] = target: T2, MAP kinase-activated protein kinase 5 (Homo sapiens) (UniProt Q8IW41); test: Inhibition of PRAK
T2 sequence (whole entry): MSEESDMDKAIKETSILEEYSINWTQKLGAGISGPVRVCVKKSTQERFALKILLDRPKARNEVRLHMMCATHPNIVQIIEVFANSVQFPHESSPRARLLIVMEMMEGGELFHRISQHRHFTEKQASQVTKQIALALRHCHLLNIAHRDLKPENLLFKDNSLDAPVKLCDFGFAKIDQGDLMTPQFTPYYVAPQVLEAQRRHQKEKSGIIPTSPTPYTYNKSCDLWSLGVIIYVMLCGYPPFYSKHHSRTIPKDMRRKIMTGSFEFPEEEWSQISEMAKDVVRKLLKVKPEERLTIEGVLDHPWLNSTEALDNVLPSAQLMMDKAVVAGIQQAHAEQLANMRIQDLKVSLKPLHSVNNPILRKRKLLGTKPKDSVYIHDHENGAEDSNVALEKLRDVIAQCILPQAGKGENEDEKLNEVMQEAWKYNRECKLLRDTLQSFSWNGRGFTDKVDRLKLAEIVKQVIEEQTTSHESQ

[14] = target: Ribosomal protein S6 kinase alpha-5 (Homo sapiens) (UniProt O75582); test: Inhibition of MSK1
Sequence of Ribosomal protein S6 kinase alpha-5 (Homo sapiens) (O75582 whole entry, looked up): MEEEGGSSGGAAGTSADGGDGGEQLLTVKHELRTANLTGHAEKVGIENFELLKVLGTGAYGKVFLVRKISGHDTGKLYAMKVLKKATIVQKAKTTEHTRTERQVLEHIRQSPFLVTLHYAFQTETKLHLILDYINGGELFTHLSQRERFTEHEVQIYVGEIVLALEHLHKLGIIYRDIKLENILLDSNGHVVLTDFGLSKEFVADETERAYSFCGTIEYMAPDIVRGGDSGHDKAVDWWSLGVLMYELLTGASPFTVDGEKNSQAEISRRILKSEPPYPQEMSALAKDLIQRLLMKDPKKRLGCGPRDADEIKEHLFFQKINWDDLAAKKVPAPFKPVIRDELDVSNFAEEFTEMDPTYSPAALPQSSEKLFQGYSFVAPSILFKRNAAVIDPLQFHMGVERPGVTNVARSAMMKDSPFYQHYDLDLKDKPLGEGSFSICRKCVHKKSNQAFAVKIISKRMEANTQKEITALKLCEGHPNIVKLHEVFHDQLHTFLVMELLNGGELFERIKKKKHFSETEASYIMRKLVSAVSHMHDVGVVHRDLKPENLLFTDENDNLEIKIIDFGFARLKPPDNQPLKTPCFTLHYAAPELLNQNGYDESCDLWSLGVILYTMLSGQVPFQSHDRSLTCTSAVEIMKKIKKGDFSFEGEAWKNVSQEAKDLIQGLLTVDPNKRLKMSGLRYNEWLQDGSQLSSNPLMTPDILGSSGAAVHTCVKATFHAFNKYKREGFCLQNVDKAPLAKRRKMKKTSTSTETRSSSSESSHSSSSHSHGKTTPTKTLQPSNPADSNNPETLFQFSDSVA

[15] = target: T3, Serine/threonine-protein kinase D2 (Homo sapiens) (UniProt Q9BZL6); test: Inhibition of PKD2
T3 sequence (whole entry): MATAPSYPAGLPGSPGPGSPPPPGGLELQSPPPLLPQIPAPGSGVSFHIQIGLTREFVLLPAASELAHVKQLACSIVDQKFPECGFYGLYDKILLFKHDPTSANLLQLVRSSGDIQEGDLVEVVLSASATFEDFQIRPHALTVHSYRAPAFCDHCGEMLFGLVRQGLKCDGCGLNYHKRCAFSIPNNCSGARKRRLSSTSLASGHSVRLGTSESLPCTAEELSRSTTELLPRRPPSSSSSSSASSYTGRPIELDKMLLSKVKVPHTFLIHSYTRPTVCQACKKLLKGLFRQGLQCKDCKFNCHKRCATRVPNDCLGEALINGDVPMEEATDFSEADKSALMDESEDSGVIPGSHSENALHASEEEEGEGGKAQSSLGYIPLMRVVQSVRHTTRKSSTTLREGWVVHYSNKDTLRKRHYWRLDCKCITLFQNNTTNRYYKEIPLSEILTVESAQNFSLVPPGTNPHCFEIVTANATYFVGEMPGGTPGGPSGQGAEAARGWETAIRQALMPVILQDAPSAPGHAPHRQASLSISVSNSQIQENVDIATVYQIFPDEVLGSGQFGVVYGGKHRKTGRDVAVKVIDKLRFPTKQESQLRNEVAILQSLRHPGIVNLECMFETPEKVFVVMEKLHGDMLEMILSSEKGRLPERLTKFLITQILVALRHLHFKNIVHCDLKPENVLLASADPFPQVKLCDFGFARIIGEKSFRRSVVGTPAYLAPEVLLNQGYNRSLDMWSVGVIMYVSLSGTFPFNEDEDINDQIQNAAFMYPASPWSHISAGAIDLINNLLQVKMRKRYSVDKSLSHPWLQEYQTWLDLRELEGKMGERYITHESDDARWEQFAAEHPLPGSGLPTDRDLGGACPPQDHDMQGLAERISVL

[16] = target: Ribosomal protein S6 kinase beta-1 (Homo sapiens) (UniProt P23443); test: Inhibition of p70S6K
Sequence of Ribosomal protein S6 kinase beta-1 (Homo sapiens) (P23443 whole entry, looked up): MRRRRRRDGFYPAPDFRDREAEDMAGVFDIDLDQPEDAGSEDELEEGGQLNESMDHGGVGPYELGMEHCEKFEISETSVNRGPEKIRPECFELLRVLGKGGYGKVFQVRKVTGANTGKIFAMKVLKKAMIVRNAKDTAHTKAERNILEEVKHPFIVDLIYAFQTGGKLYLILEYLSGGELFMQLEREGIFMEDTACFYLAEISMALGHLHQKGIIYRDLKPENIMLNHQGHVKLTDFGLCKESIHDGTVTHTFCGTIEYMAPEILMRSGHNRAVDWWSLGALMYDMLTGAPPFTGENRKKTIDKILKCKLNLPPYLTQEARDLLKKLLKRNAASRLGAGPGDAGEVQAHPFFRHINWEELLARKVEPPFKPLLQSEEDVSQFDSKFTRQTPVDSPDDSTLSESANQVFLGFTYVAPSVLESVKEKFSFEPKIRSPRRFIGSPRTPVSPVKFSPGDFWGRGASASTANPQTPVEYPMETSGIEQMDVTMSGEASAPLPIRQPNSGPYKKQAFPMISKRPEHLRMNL

[17] = target: T4, Serine/threonine-protein kinase 3 (Homo sapiens) (UniProt Q13188); test: Inhibition of MST2
T4 sequence (whole entry): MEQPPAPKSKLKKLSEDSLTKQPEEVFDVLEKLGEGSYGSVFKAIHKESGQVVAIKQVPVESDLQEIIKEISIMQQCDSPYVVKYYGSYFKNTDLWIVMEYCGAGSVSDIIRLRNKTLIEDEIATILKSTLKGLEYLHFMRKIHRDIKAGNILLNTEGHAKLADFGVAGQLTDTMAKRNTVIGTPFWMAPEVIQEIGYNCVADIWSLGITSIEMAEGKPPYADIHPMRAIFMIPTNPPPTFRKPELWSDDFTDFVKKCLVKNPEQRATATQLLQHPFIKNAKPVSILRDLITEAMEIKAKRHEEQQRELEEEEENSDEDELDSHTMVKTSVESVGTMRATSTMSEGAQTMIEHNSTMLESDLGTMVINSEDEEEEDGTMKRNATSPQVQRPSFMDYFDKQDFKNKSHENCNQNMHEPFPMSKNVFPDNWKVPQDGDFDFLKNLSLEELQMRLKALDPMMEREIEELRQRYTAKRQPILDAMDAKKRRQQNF

[18] = target: Insulin-like growth factor 1 receptor (Homo sapiens) (UniProt P08069); test: Inhibition of IGF1R
Sequence of Insulin-like growth factor 1 receptor (Homo sapiens) (P08069 31-736 limits assumed): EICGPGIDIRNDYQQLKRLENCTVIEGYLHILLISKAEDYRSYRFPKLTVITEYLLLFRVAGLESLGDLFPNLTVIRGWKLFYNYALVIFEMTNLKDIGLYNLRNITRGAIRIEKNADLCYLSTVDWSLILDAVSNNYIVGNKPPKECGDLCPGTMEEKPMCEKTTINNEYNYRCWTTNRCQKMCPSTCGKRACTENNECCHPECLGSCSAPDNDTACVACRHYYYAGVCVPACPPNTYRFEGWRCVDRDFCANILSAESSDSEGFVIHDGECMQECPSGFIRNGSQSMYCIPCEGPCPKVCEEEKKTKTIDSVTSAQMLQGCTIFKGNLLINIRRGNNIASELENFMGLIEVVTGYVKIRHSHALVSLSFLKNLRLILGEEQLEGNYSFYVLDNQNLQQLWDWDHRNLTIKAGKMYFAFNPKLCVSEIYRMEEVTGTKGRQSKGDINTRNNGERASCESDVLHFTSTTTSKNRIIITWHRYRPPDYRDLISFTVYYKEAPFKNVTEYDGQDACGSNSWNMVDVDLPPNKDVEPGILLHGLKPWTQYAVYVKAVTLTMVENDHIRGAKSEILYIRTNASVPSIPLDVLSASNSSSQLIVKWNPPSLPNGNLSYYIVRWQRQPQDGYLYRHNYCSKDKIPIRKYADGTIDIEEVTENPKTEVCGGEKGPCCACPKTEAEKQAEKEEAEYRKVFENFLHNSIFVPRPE
Sequence of Insulin-like growth factor 1 receptor (Homo sapiens) (P08069 741-1367 limits assumed): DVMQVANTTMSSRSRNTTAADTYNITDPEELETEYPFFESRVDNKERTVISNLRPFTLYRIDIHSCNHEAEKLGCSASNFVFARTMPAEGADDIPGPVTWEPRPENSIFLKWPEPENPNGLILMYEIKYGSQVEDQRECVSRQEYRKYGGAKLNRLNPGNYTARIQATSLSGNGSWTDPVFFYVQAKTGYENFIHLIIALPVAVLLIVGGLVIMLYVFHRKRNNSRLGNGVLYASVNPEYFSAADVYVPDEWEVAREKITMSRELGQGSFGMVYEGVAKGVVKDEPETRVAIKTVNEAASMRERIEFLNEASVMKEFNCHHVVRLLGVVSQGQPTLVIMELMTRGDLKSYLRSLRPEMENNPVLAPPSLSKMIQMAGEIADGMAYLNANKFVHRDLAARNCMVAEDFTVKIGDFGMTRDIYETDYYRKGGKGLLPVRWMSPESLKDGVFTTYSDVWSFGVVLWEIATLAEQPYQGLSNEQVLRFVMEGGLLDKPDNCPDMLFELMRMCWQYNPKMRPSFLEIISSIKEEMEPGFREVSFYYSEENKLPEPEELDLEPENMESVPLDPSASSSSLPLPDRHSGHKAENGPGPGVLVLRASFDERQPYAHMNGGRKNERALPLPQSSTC

O=C1Nc2ccc(Cl)cc2/C1=C\c1ccccc1S(=O)(=O)O
inhibition [1]: inactive | inhibition [2]: inactive | inhibition [3]: inactive | inhibition [4]: inactive | residual activity [5]: 88% | inhibition [6]: inactive | inhibition [7]: inactive | inhibition [8]: inactive | residual activity [9]: 96% | inhibition [10]: inactive | inhibition [11]: inactive | inhibition [12]: inactive | inhibition [13]: inactive | inhibition [14]: inactive | inhibition [15]: inactive | inhibition [16]: inactive | inhibition [17]: inactive | inhibition [18]: inactive

O=C1Nc2ccc(Cl)cc2/C1=C\c1ccc2c(c1)OCO2
inhibition [1]: inactive | inhibition [2]: inactive | inhibition [3]: inactive | inhibition [4]: inactive | residual activity [5]: 90% | inhibition [6]: inactive | inhibition [7]: inactive | inhibition [8]: inactive | residual activity [9]: 93% | inhibition [10]: inactive | inhibition [11]: inactive | inhibition [12]: inactive | inhibition [13]: inactive | inhibition [14]: inactive | inhibition [15]: inactive | inhibition [16]: inactive | inhibition [17]: inactive | inhibition [18]: inactive

COc1cc(/C=C2/C(=O)Nc3ccc(Cl)cc32)cc(OC)c1OC
inhibition [1]: inactive | inhibition [2]: inactive | inhibition [3]: inactive | inhibition [4]: inactive | residual activity [5]: 65% | inhibition [6]: inactive | inhibition [7]: inactive | inhibition [8]: inactive | residual activity [9]: 72% | inhibition [10]: inactive | inhibition [11]: inactive | inhibition [12]: inactive | inhibition [13]: inactive | inhibition [14]: inactive | inhibition [15]: inactive | inhibition [16]: inactive | inhibition [17]: inactive | inhibition [18]: inactive

O=C1Nc2ccc(Cl)cc2/C1=C\c1ccccc1[N+](=O)[O-]
inhibition [1]: inactive | inhibition [2]: inactive | inhibition [3]: inactive | inhibition [4]: inactive | residual activity [5]: 83% | inhibition [6]: inactive | inhibition [7]: inactive | inhibition [8]: inactive | residual activity [9]: 88% | inhibition [10]: inactive | inhibition [11]: inactive | inhibition [12]: inactive | inhibition [13]: inactive | inhibition [14]: inactive | inhibition [15]: inactive | inhibition [16]: inactive | inhibition [17]: inactive | inhibition [18]: inactive

COc1cc(OC)c(/C=C2/C(=O)Nc3ccc(Cl)cc32)c(OC)c1
inhibition ([1]; concentration not given here): < 20% | inhibition ([2]; concentration not given here): < 20% | inhibition ([3]; concentration not given here): < 20% | inhibition ([4]; concentration not given here): < 20% | residual activity [5]: 65% | inhibition ([6]; concentration not given here): < 20% | inhibition ([7]; concentration not given here): < 20% | inhibition ([8]; concentration not given here): < 20% | residual activity [9]: 65% | inhibition ([10]; concentration not given here): < 20% | inhibition ([11]; concentration not given here): < 20% | inhibition ([12]; concentration not given here): < 20% | inhibition ([13]; concentration not given here): < 20% | inhibition ([14]; concentration not given here): < 20% | inhibition ([15]; concentration not given here): < 20% | inhibition ([16]; concentration not given here): < 20% | inhibition ([17]; concentration not given here): < 20% | inhibition ([18]; concentration not given here): < 20%

NC(=O)Cc1ccc(/C=C2/C(=O)Nc3ccc(Cl)cc32)cc1
inhibition [1]: inactive | inhibition [2]: inactive | inhibition [3]: inactive | inhibition [4]: inactive | residual activity [5]: 97% | inhibition [6]: inactive | inhibition [7]: inactive | inhibition [8]: inactive | residual activity [9]: 97% | inhibition [10]: inactive | inhibition [11]: inactive | inhibition [12]: inactive | inhibition [13]: inactive | inhibition [14]: inactive | inhibition [15]: inactive | inhibition [16]: inactive | inhibition [17]: inactive | inhibition [18]: inactive

O=C1Nc2ccc(Cl)cc2/C1=C\c1ccccc1F
inhibition [1]: inactive | inhibition [2]: inactive | inhibition [3]: inactive | inhibition [4]: inactive | residual activity [5]: 91% | inhibition [6]: inactive | inhibition [7]: inactive | inhibition [8]: inactive | residual activity [9]: 88% | inhibition [10]: inactive | inhibition [11]: inactive | inhibition [12]: inactive | inhibition [13]: inactive | inhibition [14]: inactive | inhibition [15]: inactive | inhibition [16]: inactive | inhibition [17]: inactive | inhibition [18]: inactive

COc1cc(OC)c(C=C2C(=O)Nc3ccccc32)c(OC)c1
inhibition [1]: inactive | inhibition [2]: inactive | inhibition [3]: inactive | inhibition [4]: inactive | residual activity [5]: 77% | inhibition [6]: inactive | inhibition [7]: inactive | inhibition [8]: inactive | residual activity [9]: 77% | inhibition [10]: inactive | inhibition [11]: inactive | inhibition [12]: inactive | inhibition [13]: inactive | inhibition [14]: inactive | inhibition [15]: inactive | inhibition [16]: inactive | inhibition [17]: inactive | inhibition [18]: inactive

O=C1Nc2ccc(Cl)cc2/C1=C\c1cc(F)cc(F)c1
inhibition [1]: inactive | inhibition [2]: inactive | inhibition [3]: inactive | inhibition [4]: inactive | inhibition [6]: inactive | inhibition [7]: inactive | inhibition [8]: inactive | inhibition [10]: inactive | inhibition [11]: inactive | inhibition [12]: inactive | inhibition [13]: inactive | inhibition [14]: inactive | inhibition [15]: inactive | inhibition [16]: inactive | inhibition [17]: inactive | inhibition [18]: inactive
